Data from PubChem BioAssay (NCI).
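GI50: concentration for 50% inhibition of growth. At the TGI there is no net growth.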

Experiments:
Test in all cases: NCI anticancer screen, dose series, 384-well format
MCF7 breast = tested on: MCF7 breast
SNB-19 CNS = tested on: SNB-19 CNS
SNB-75 CNS = tested on: SNB-75 CNS
SF-268 CNS = tested on: SF-268 CNS
U251 glioblastoma = tested on: U251 glioblastoma
HOP-62 NSCLC = tested on: HOP-62 NSCLC
LOX IMVI melanoma = tested on: LOX IMVI melanoma
MDA-MB-231 breast = tested on: MDA-MB-231 breast
SK-MEL-28 melanoma = tested on: SK-MEL-28 melanoma
K-562 leukemia = tested on: K-562 leukemia
A549 NSCLC = tested on: A549 NSCLC
OVCAR-3 ovarian = tested on: OVCAR-3 ovarian
HL-60(TB) leukemia = tested on: HL-60(TB) leukemia
UO-31 renal = tested on: UO-31 renal
UACC-62 melanoma = tested on: UACC-62 melanoma
DU-145 prostate = tested on: DU-145 prostate
HT29 colon = tested on: HT29 colon
IGROV1 ovarian = tested on: IGROV1 ovarian
OVCAR-5 ovarian = tested on: OVCAR-5 ovarian
COLO 205 colon = tested on: COLO 205 colon
HOP-92 NSCLC = tested on: HOP-92 NSCLC
MOLT-4 leukemia = tested on: MOLT-4 leukemia
SK-OV-3 ovarian = tested on: SK-OV-3 ovarian
PC-3 prostate = tested on: PC-3 prostate
HCT-116 colon = tested on: HCT-116 colon
SK-MEL-2 melanoma = tested on: SK-MEL-2 melanoma
MALME-3M melanoma = tested on: MALME-3M melanoma

O=C1NC(=O)[C@@H](c2cn3c4c(cccc24)CCC3)[C@@H]1c1c[nH]c2ccccc12
GI50 (MCF7 breast): 141 nM | TGI (MCF7 breast): 11600 nM | GI50 (SNB-19 CNS): 347 nM | TGI (SNB-19 CNS): 12000 nM | GI50 (SNB-75 CNS): 246 nM | TGI (SNB-75 CNS): 10100 nM | GI50 (SF-268 CNS): 281 nM | TGI (SF-268 CNS): 2700 nM | GI50 (U251 glioblastoma): 280 nM | TGI (U251 glioblastoma): 1790 nM | GI50 (HOP-62 NSCLC): 252 nM | TGI (HOP-62 NSCLC): 11800 nM | GI50 (LOX IMVI melanoma): 453 nM | TGI (LOX IMVI melanoma): 2100 nM | GI50 (MDA-MB-231 breast): 398 nM | TGI (MDA-MB-231 breast): 15400 nM | GI50 (SK-MEL-28 melanoma): 311 nM | TGI (SK-MEL-28 melanoma): 16600 nM | GI50 (K-562 leukemia): 21.5 nM | TGI (K-562 leukemia): 373 nM | GI50 (A549 NSCLC): 413 nM | TGI (A549 NSCLC): 14100 nM | GI50 (OVCAR-3 ovarian): 21.9 nM | TGI (OVCAR-3 ovarian): 149 nM | GI50 (HL-60(TB) leukemia): 124 nM | TGI (HL-60(TB) leukemia): 252 nM | GI50 (UO-31 renal): 365 nM | TGI (UO-31 renal): 16700 nM | GI50 (UACC-62 melanoma): 96.9 nM | TGI (UACC-62 melanoma): 525 nM | GI50 (DU-145 prostate): 451 nM | TGI (DU-145 prostate): 2990 nM | GI50 (HT29 colon): 180 nM | TGI (HT29 colon): 494 nM | GI50 (IGROV1 ovarian): 403 nM | TGI (IGROV1 ovarian): 12400 nM | GI50 (OVCAR-5 ovarian): 1620 nM | TGI (OVCAR-5 ovarian): 17300 nM | GI50 (COLO 205 colon): 281 nM | TGI (COLO 205 colon): 7770 nM | GI50 (HOP-92 NSCLC): 410 nM | TGI (HOP-92 NSCLC): 10700 nM | GI50 (MOLT-4 leukemia): 52 nM | TGI (MOLT-4 leukemia): 199 nM | GI50 (SK-OV-3 ovarian): 184 nM | TGI (SK-OV-3 ovarian): 3710 nM | GI50 (PC-3 prostate): 145 nM | TGI (PC-3 prostate): 8340 nM | GI50 (HCT-116 colon): 285 nM | TGI (HCT-116 colon): 3630 nM | GI50 (SK-MEL-2 melanoma): 256 nM | TGI (SK-MEL-2 melanoma): 497 nM | GI50 (MALME-3M melanoma): 260 nM | TGI (MALME-3M melanoma): 11500 nM
